Values quoted from earlier work in patent publication US9541834B2, “Ionic thermal acid generators for low temperature applications” (Rohm and Haas Electronic Materials LLC, priority 2012, dated 2017).

details: pKa of conjugate acid (BH)+ of the base of the TAG, aqueous solution, about room temperature

Compound	pKa (base)
Pyridazinium perfluorobutanesulfonate [Pyridazinium PFBuS]	3.1
3-Fluoropyridinium perfluorobutanesulfonate [3-Fluoropyridinium PFBuS]	2.8
N.O=S(=O)(O)C(F)(F)C(F)(F)C(F)(F)C(F)(F)F [Ammonium PFBuS, Ammonium perfluorobutanesulfonate]	9.25
